Series [1] relates to L1210. Nature of the series: Antitumor activity against mouse L1210 cells […] in ip dosed C3H X DBA2 F1 hybrid mouse on day 0 and dosed at LD10 level once daily on days 1 to 5 assessed as increase in life span relative to control. In kind it is functional.
The species named for the next series is Bos taurus. The series can be described thus: Displacement of ethidium from calf thymus DNA by fluorimetric method.
A further series concerns Mus musculus. The series can be described thus: Toxicity in ip dosed C3H X DBA2 F1 hybrid mouse […] with mouse L1210 cells on day 0 and dosed once daily on days 1 to 5 measured after 50 days. In kind it is organism-based. Conditions: in vivo, 1200 h.
The test system of series [2] is L1210. The series can be described thus: Antitumor activity against mouse L1210 cells […] in ip dosed C3H X DBA2 F1 hybrid mouse on day 0 and dosed once daily on days 1 to 5 assessed as increase in life span relative to control. In kind it is functional.
Series [3] is described as follows: Lipophilic-hydrophilic balance, Rm of the compound by partition chromatography. In kind it is physicochemical.
Series [4] is described as follows: Displacement of ethidium from poly[d(A-T)]-poly[d(A-T)] DNA by fluorimetric method.
Series [5] in a line: Displacement of ethidium from poly[d(G-C)]-poly[d(G-C)] DNA (unknown origin) by fluorimetric method.

Regarding `CC[n+]1cccc2cc(NC(=O)c3ccc(-c4ccc(-c5ccc(-c6ccc(C(=O)Nc7ccc8c(ccc[n+]8CC)c7)cc6)cc5)cc4)cc3)ccc21.Cc1ccc(S(=O)(=O)[O-])cc1.Cc1ccc(S(=O)(=O)[O-])cc1`, in the series on L1210 [1], the “log(ILSmax)” value was 2.16. Further, the C50 worked out at 0.3 µM in the series listed under Bos taurus, 0.18 µM in series [4] and 0.61 µM in series [5]. Moreover, the LD10 in the series on Mus musculus came to 31 mg/kg. Besides, the D40 in the series on L1210 [2] amounted to 10.5 mg/kg. This compound came in with a Rm in series [3] of -0.1.
With `C[n+]1cccc(NC(=O)c2ccc(NC(=O)c3ccc(C(=O)Nc4ccc(Nc5cc[n+](C)c6ccc(N)cc56)cc4)cc3)cc2)c1.Cc1ccc(S(=O)(=O)[O-])cc1.Cc1ccc(S(=O)(=O)[O-])cc1`, in the series on L1210 [1], the “log(ILSmax)” value is on record as 1.95. The C50 was 0.31 µM in the series filed under Bos taurus, 0.22 µM in series [4] and 0.34 µM in series [5]. In the series on Mus musculus, this compound had an LD10 of 140 mg/kg. Moreover, the D40 in the series with L1210 [2] is 22.1 mg/kg. The same compound gave a Rm in series [3] of -0.47.
In the case of `COc1cc(C(=O)Nc2ccc[n+](C)c2)ccc1NC(=O)c1ccc(C(=O)Nc2ccc(C(=O)Nc3ccc[n+](C)c3)cc2OC)cc1.Cc1ccc(S(=O)(=O)[O-])cc1.Cc1ccc(S(=O)(=O)[O-])cc1`, the “log(ILSmax)” value with L1210 [1] turned out to be 1.89. Moreover, the C50 was 0.84 µM in the series listed under Bos taurus, 0.72 µM in series [4] and 0.9 µM in series [5]. Also, in the series with Mus musculus, the LD10 was determined as 25 mg/kg. In the series on L1210 [2], the D40 is 13 mg/kg. The compound also gave a Rm in series [3] of -0.41.
In the case of `CC[n+]1ccc(Nc2ccc(NC(=O)c3ccc(Nc4cc[n+](CC)c5ccccc45)cc3)cc2)cc1.[Br-].[Br-]`, in the series on L1210 [1], the “log(ILSmax)” value was 2.07. The C50 is 2 µM in the series listed under Bos taurus, 0.19 µM in series [4] and 3.1 µM in series [5]. The same compound yielded an LD10 in the series on Mus musculus of 15 mg/kg. Further, the D40 with L1210 [2] came to 2.8 mg/kg. In addition, the Rm in series [3] stood at 0.54.
On to `CCC[n+]1cccc(NC(=O)c2ccc(NC(=O)c3ccc(C(=O)Nc4ccc(C(=O)Nc5ccc[n+](CCC)c5)c(N)c4)c(N)c3)cc2N)c1.Cc1ccc(S(=O)(=O)[O-])cc1.Cc1ccc(S(=O)(=O)[O-])cc1`, for which the “log(ILSmax)” value in the series with L1210 [1] was found to be 2.1. Also, the C50 in the series listed under Bos taurus amounted to 0.26 µM; in series [4], 0.08 µM; in series [5], 0.48 µM. Besides, in the series with Mus musculus, the LD10 was 10 mg/kg. In addition, in the series with L1210 [2], the D40 was 2.2 mg/kg. The Rm in series [3] is listed as -0.51.
With `C[n+]1ccc(Nc2ccc(NC(=O)c3ccc(Nc4cc[n+](C)c5cc(Cl)ccc45)cc3)cc2)cc1.[Br-].[Br-]`, the “log(ILSmax)” value in the series with L1210 [1] came out at 1.97. In addition, the C50 in the series filed under Bos taurus is 1 µM; in series [4], 0.21 µM; in series [5] it was 2.27 µM. Also, the LD10 in the series with Mus musculus came to 39 mg/kg. Moreover, the D40 with L1210 [2] worked out at 12 mg/kg. The compound further came in with a Rm in series [3] of 0.31.
`C[n+]1cccc(NC(=O)c2ccc(NC(=O)c3ccc(C(=O)Nc4ccc(NC(=N)NC(=N)N)cc4)cc3)cc2)c1.I.[I-]`: the “log(ILSmax)” value in the series on L1210 [1] came out at 2.2. Besides, the C50 in the series filed under Bos taurus came to 1.14 µM; in series [4] it was 0.77 µM; in series [5], 1.71 µM. The LD10 in the series with Mus musculus came out at 11 mg/kg. The D40 in the series with L1210 [2] was 1 mg/kg. The compound further displayed a Rm in series [3] of -0.4.
On to `Br.C/C(=N\NC(=N)N)c1ccc(C(=O)Nc2ccc(Nc3cc[n+](C)c4cc(N)ccc34)cc2)cc1.[Br-]`, for which, in the series with L1210 [1], the “log(ILSmax)” value amounted to 2.28. Further, the C50 was found to be 0.35 µM in the series listed under Bos taurus, 0.17 µM in series [4] and 0.6 µM in series [5]. In addition, the LD10 in the series on Mus musculus worked out at 165 mg/kg. Besides, the D40 in the series with L1210 [2] came out at 30 mg/kg. Also, in series [3], the Rm was -0.35.
Turning to `Cc1c(C(=O)Nc2ccc(C(=O)Nc3ccc[n+](C)c3)cc2)ccc(C(=O)Nc2ccc(C(=O)Nc3ccc[n+](C)c3)cc2)c1C.Cc1ccc(S(=O)(=O)[O-])cc1.Cc1ccc(S(=O)(=O)[O-])cc1`, the “log(ILSmax)” value in the series on L1210 [1] came to 1.65. The C50 in the series filed under Bos taurus was found to be 6.9 µM; in series [4] it was 5.4 µM; in series [5], 12 µM. In addition, the LD10 in the series with Mus musculus stood at 19 mg/kg. Further, the D40 in the series on L1210 [2] came out at 14.7 mg/kg. In series [3], this compound had a Rm of 0.47.
On to `C[n+]1ccc(Nc2ccc(NC(=O)/C=C/c3ccc(C(=O)Nc4ccc(Nc5cc[n+](C)cc5)cc4)cc3)cc2)cc1.Cc1ccc(S(=O)(=O)[O-])cc1.Cc1ccc(S(=O)(=O)[O-])cc1`, for which the “log(ILSmax)” value in the series on L1210 [1] was found to be 2.28. The C50 in the series filed under Bos taurus came to 0.43 µM; in series [4], 0.14 µM; in series [5], 0.51 µM. In the series on Mus musculus, the LD10 worked out at 11 mg/kg. For the same compound, the D40 in the series with L1210 [2] stood at 4.2 mg/kg. This compound returned a Rm in series [3] of -0.34.
Regarding `C[n+]1ccc(Nc2ccc(NC(=O)c3ccc(-c4ccc(Nc5cc[n+](C)cc5)cc4)cc3)cc2)cc1.[I-].[I-]`, the “log(ILSmax)” value in the series on L1210 [1] was found to be 2.28. Further, the C50 is 2.04 µM in the series filed under Bos taurus, 0.37 µM in series [4] and 3.01 µM in series [5]. In the series with Mus musculus, this compound yielded an LD10 of 2.6 mg/kg. In the series with L1210 [2], the D40 came out at 0.6 mg/kg. Besides, the Rm in series [3] was 0.06.
For the compound `C[n+]1ccc(Nc2ccc(NC(=O)c3ccc(Nc4cc[n+](C)c5cc([N+](=O)[O-])ccc45)cc3)cc2)cc1.Cc1ccc(S(=O)(=O)[O-])cc1.Cc1ccc(S(=O)(=O)[O-])cc1`, the “log(ILSmax)” value in the series with L1210 [1] is listed as 2.02. In addition, the C50 in the series listed under Bos taurus turned out to be 0.69 µM; in series [4], 0.2 µM; in series [5], 1.3 µM. The compound also gave an LD10 in the series on Mus musculus of 27 mg/kg. Further, the D40 in the series on L1210 [2] is 3 mg/kg. This compound displayed a Rm in series [3] of 0.15.
Consider `C[n+]1ccc(Nc2ccc(NC(=O)c3ccc(C(=O)Nc4ccc(Nc5cc[n+](C)c(N)n5)cc4)cc3)cc2)nc1N.Cc1ccc(S(=O)(=O)[O-])cc1.Cc1ccc(S(=O)(=O)[O-])cc1`, for which the “log(ILSmax)” value with L1210 [1] is 2.2. In addition, the C50 in the series filed under Bos taurus worked out at 0.45 µM; in series [4] it was 0.29 µM; in series [5], 0.64 µM. In addition, the LD10 in the series with Mus musculus worked out at 75 mg/kg. The D40 in the series on L1210 [2] is 8.6 mg/kg. For the same compound, in series [3], the Rm is reported as -0.64.
Regarding `C[n+]1ccc(Nc2ccc(C(=O)Nc3ccc(Nc4cc[n+](C)c5ccc(N)cc45)cc3)cc2)cc1.Cc1ccc(S(=O)(=O)[O-])cc1.Cc1ccc(S(=O)(=O)[O-])cc1`, the “log(ILSmax)” value with L1210 [1] worked out at 2.3. The C50 worked out at 0.6 µM in the series filed under Bos taurus, 0.12 µM in series [4] and 1.2 µM in series [5]. Besides, the LD10 in the series with Mus musculus stood at 11 mg/kg. In addition, the D40 with L1210 [2] is 1.2 mg/kg. For the same compound, in series [3], the Rm is reported as 0.05.
For `C[n+]1ccc(Nc2ccc(NC(=O)/C=C/c3ccc(Nc4cc[n+](C)c5ccccc45)cc3)cc2)cc1.[Br-].[Br-]`, the “log(ILSmax)” value with L1210 [1] is 2.22. The C50 was 0.38 µM in the series listed under Bos taurus, 0.15 µM in series [4] and 0.71 µM in series [5]. In the series with Mus musculus, the LD10 was 22 mg/kg. In addition, the D40 with L1210 [2] turned out to be 1.3 mg/kg. Moreover, the Rm in series [3] was 0.28.
For the compound `C[n+]1ccc(Nc2ccc(C(=O)Nc3ccc(Nc4cc[n+](C)c5cc(N)ccc45)cc3)c(N)c2)cc1.Cc1ccc(S(=O)(=O)[O-])cc1.Cc1ccc(S(=O)(=O)[O-])cc1`, the “log(ILSmax)” value with L1210 [1] came out at 2.38. In addition, the C50 in the series listed under Bos taurus came out at 0.44 µM; in series [4], 0.14 µM; in series [5], 0.77 µM. In the series on Mus musculus, this compound had an LD10 of 20 mg/kg. In addition, the D40 with L1210 [2] turned out to be 1.7 mg/kg. In series [3], this compound registered a Rm of -0.12.

The values are drawn from ChEMBL document CHEMBL3228010, “Potential antitumor agents. 29. Quantitative structure-activity relationships for the antileukemic bisquaternary ammonium heterocycles” (J Med Chem, 1979).
